What was measured:
SIRT-1 = experiment: Immunoblotting of SIRT-1 and phos-SIRT-1 in HUVECs; type: cell-based, human; settings: ANM or RES + HG
Method: To determine whether ANM regulates HUVEC senescence through a SIRT-1-mediated pathway, protein expression levels of SIRT-1 are examined. In FIG. 9E, protein expression levels of SIRT-1 and phos-SIRT-1 are monitored by immunoblotting.
Cells are lysed by either RIPA lysis buffer or nuclear and cytoplasmic extraction reagents (Thermo Fisher Scientific). Protein concentrations are determined by Bio-Rad protein assay reagent (Bio-Rad Laboratories, Hercules, Calif.). Equal amounts of protein samples (60 μg) are separated by 7-12% SDS-PAGE and the separated proteins are transferred onto polyvinylidene […] (PVDC) membrane overnight. The transferred protein membranes are blocked with 5% non-fat dried milk for 30 min, followed by incubation with specific primary antibodies overnight, and either horseradish peroxidase-conjugated goat anti-rabbit or anti-mouse antibodies for 2 h. The blots are detected using VL Chemi-Smart 3000 (Viogene Biotek, Sunnyvale, Calif.) with the enhanced chemiluminescence (ECL) western blotting reagent (Millipore, Billerica, Mass.).

[1] = system: SIRT-1, SIRT-3 and SIRT-6; experiment: RT-PCR/Q-PCR of SIRT genes in HNDFs; type: cell-based, human; settings: 72 h
Source text: As shown in the figures, to determine whether ANM regulates HNDF senescence through a SIRT-1-mediated pathway, expression levels of SIRT genes SIRT-1, SIRT-3 and SIRT-6 are is examined.
Total RNA is extracted and subjected to Q-PCR analysis to monitor SIRT-1, SIRT-3 and SIRT-6 expression. Relative mRNA levels are normalized by β-actin mRNA. Previous studies have shown that exposure of endothelial cells to HG rapidly decreases levels of expression of SIRT genes.
Total RNA is extracted from cultured HNDFs using Trizol Reagent (Thermo Fisher Scientific). Q-PCR analysis is performed using Applied Biosystems detection instruments and software. Forward and reverse primers (10 μM), and the working solution SYBR green, is used as a PCR master mix, under the following conditions: 96° C. for 3 minutes followed by 40 cycles at 96° C. for 1 minute, 50° C. for 30 seconds and 72° C. for 90 seconds. GAPDH is used as an internal standard to control for variability in amplification because of differences in starting mRNA concentrations. The copy number of each transcript is calculated as the relative copy number normalized by GAPDH copy number.

Nrf2 = experiment: ARE luciferase reporter assay in HUVECs; type: cell-based, human; settings: ANM 10 μM or RES 5 μM + HG 30 mM, 6 h; HG alone 0.5-fold, control 1-fold
Method: Cell lysates are mixed with luciferase reagents and quantified using an illuminometer. Relative ARE promoter activity is calculated by dividing the relative luciferase unit (RLU) of treated cells by RLU of untreated cells (NG). Results are expressed as mean±SEM of three independent experiments. Statistical significance is set at ^ϕP<0.05 as compared to NG vs. HG and *P<0.05 as compared to HG vs. samples.
ARE promoter activity is measured using a dual-luciferase reporter assay system (Promega, Madison, Wis.). […] Cells are then transfected with ARE plasmid (Qiagen, Hilden, Germany) using Lipofectamine 2000 (Invitrogen) and incubated for 36 h. […] The cell lysate is prepared and incubated with luciferase agents and the relative luminescence intensity is quantified using a spectrophotometer (Hidex Oy, Turku, Finland).

wild-type C. elegans = experiment: C. elegans lifespan assay; type: in vivo, Caenorhabditis elegans
Method: It has been well documented that high glucose levels decrease the life span of C. elegans by increasing ROS formation and advance glycation end-product modification of mitochondrial proteins. Therefore, it is further investigated whether ANM has a protective effect against hyperglycemia-induced oxidative stress as well as anti-aging effects. Worms are incubated with high glucose (50 mM) with or without ANM […], and controlled for life span evaluation. In FIG. 8B, effect of ANM on the life span of C. elegans under hyperglycemic condition is examined. Age synchronized L1 larvae are transfected to NGM plates which contain HG (50 mM) with or without ANM (10 μM) and worms are developed to adulthood. The survival rate is scored everyday and is expressed as a percentage of survival. […] Results are expressed as mean±S.E.M of three independent experiments. Statistical significance is set at ^ϕP<0.05 as compared to control vs. HG, *P<0.05 as compared to HG vs. HG+sample and ̂P<0.05 as compared to control vs. samples.
Control worms are treated with 0.01% DMSO. All worms are kept 20° C. to develop adulthood. After 6 days, worms are transferred to plates containing glucose are applicable. Surviving and dead animals are counted daily (starting from the first day of adulthood) until all worms had died. […] Worms suffering from internal hatch (a defect in egg-laying) and those that crawled off the NGM plate are not included in the life-span assay. During the reproductive period, adult worms are transferred to fresh NGM plates every day during the progeny production period and then every other day thereafter. Life span assay result is obtained from three independent assays.

HNDFs = experiment: SA-β-gal senescence assay in HG-induced HNDFs; type: cell-based, human; settings: 72 h
Method: Next, the protective effects of antcins on HG-induced HNDF senescence are examined. In FIG. 2B, cells were incubated with ANA (10 μM), ANH (10 μM) and ANM (10 μM) in the presence of HG (30 mM) for 72 h. Cellular senescence is determined by SA-β-gal activity. […] After cells are co-incubated with HG and antcins (ANA, ANH and ANM) for 72 h, senescence is measured by SA-β-gal assay.
Therefore, in order to examine whether the ROS inhibitory effect may be extended to suppress HG-induced senescence, HG-induced senescenece eliminated by ANM is examined. In FIG. 4B, HNDFs are incubated with ANM (10 μM) or NAC (100 μM) in the presence or absence of HG (30 mM) for 72 h. Cellular senescence is determined by SA-β-gal assay. […] As is shown, cells are co-incubated with HG and ANM or NAC for 72 h.
Senescence-associated β-galactosidase (SA-β-gal) activity is determined in formaldehyde-fixed histochemical staining kit according to the manufacturer's instructions (Cell Signaling Technology, Danvers, Calif.). Briefly, cells are grown in 6-well plates at a density of 5×10^4 cells/well, and incubated with HG or test samples for 48 h (HUVECs) or 72 h (HNDFs). After incubation, cells are stained with SA-β-gal staining solution at pH 6.0 overnight and then the development of blue staining is observed and photographed under a bright-field microscope (Motic Electric Group, Xiamen, P.R. China).

C=C(CCC(C)C1CCC2C3=C(C(=O)C(O)C21C)C1(C)CCC(O)C(C)C1CC3)C(C)C(=O)O (stereo not shown) [ANM, antcin M]
HG-induced SIRT-1 phosphorylation at Ser47 in HUVECs (SIRT-1): significantly blocks | SIRT-1 expression in HUVECs under HG (SIRT-1): significantly rescues | SIRT-1 and SIRT-6 mRNA, HG-induced depletion ([1]; ANM 10 μM + HG, Q-PCR): rescues | SIRT-1, SIRT-3 and SIRT-6 levels (RT-PCR) ([1]; ANM 10 μM, no HG, vs control): significantly increased | relative ARE luciferase activity in HUVECs co-incubated with HG (Nrf2): 4.8 fold | life span of C. elegans under normal condition (wild-type C. elegans; ANM 10 μM or RES 438 μM vs control): significantly (P<0.026) prolongs | life span of C. elegans under hyperglycemic condition (wild-type C. elegans; HG 50 mM with ANM 10 μM vs HG alone): significant (P<0.0001) increase | SA-β-gal positive cells (HNDFs; 10 μM compound + HG 30 mM, HG alone 9.59-fold (FIG. 2B)): 1.51 fold | HG-induced senescence (SA-β-gal activity), control siRNA cells (SIRT-1 experiment) (HNDFs; ANM 10 μM + HG): significantly inhibits | HG-induced senescence (SA-β-gal), control siRNA cells (Nrf2 experiment) (HNDFs; ANM 10 μM + HG): significantly inhibits | HG-induced senescence (SA-β-gal), siNrf2-transfected cells (HNDFs; ANM 10 μM + HG): significantly prevents | SA-β-gal positive cells (HNDFs; ANM 10 μM or NAC 100 μM + HG 30 mM, HG alone 5.72-fold (FIG. 4B)): 1.89 fold | SA-β-gal activity, SIRT-1 siRNA transfected cells (HNDFs; ANM 10 μM or RES + HG): remains partially elevated
